Several values for one entry are separate records, joined by “and”; a condition that tells them apart may be missing. Equal values may be shown once.

Experimental findings from patent US12336981B2, “Compounds and compositions for the inhibition of NAMPT” (Valo Health, Inc., priority 2010, dated 2025) are described below.

One assay deals with T1, NAMPT (Homo sapiens, UniProt P43490).
T1 construct: His tag; host or cells: E. coli
T1 sequence (P43490 whole entry): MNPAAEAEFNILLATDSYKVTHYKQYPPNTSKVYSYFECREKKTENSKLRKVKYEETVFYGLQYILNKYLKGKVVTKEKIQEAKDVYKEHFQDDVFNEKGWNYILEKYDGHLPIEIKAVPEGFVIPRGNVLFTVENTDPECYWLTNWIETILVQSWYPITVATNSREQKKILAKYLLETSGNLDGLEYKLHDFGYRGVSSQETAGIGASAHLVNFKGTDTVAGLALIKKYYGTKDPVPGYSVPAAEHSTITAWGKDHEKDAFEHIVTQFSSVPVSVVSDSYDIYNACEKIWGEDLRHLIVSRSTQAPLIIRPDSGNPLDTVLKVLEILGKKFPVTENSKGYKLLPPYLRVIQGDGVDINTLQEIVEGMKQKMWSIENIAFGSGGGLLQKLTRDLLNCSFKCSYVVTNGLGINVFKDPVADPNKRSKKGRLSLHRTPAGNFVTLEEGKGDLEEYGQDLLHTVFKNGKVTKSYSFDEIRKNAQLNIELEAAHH
Kind of assay: Biochemical inhibition assay: NAMPT enzymatic reaction, NMN quantified by mass spectrometry. Conditions: NAMPT enzymatic assay; read-out: Biochem IC50. How it is done:
Biochemical Inhibition Assay
NAMPT Protein Purification
Recombinant His-tagged NAMPT was produced in E. coli cells, purified over a Ni column, and further purified over a size-exclusion column by XTAL Biostructures.
The NAMPT Enzymatic Reaction
The NAMPT enzymatic reactions were carried out in Buffer A (50 mM Hepes pH 7.5, 50 mM NaCl, 5 mM MgCl2, and 1 mM THP) in 96-well V-bottom plates. The compound titrations were performed in a separate dilution plate by serially diluting the compounds in DMSO to make a 100× stock. […] The compound and enzyme mix was incubated for 15 minutes at room temperature, then 10 μL of 10× substrate and co-factors in Buffer A were added to the test well to make a final concentration of 1 μM NAM, 100 μM 5-Phospho-D-ribose 1-diphosphate (PRPP), and 2.5 mM Adenosine 5′-triphosphate (ATP). The reaction was allowed to proceed for 30 minutes at room temperature, then was quenched with the addition of 11 μL of a solution of formic acid and L-Cystathionine to make a final concentration of 1% formic acid and 10 μM L-Cystathionine. Background and signal strength was determined by addition (or non-addition) of a serial dilution of NMN to a pre-quenched enzyme and cofactor mix.
A mass spectrometry-based assay was used to measure the NAMPT reaction product (NMN) and the internal control (L-Cystathionine). NMN and L-Cystathionine were detected using the services of Biocius Lifesciences with the RapidFire system. In short, the NMN and L-Cystathionine are bound to a graphitic carbon cartridge in 0.1% formic acid, eluted in 30% acetonitrile buffer, and injected into a Sciex 4000 mass spectrometer. The components of the sample were ionized with electrospray ionization and the positive ions were detected. […] The fragments are quantified and the analyzed by the following method.
First the NMN signal is normalized to the L-Cystathionine signal by dividing the NMN signal by the L-Cystathionine signal for each well. The signal from the background wells are averaged and subtracted from the test plates. […] IC50s are Determined Using Excel and this Formula.
The IC50 is the concentration needed to halve the response being measured. Take `O=C(NCc1ccc(S(=O)(=O)c2ccc(Cn3ccnc3)cc2)cc1)c1cc2ccncc2o1`: the IC50 turned out to be 19 nM.
On the same count and under the same terms, then `Cc1nc(-c2cccc(S(=O)(=O)c3ccc(CNC(=O)c4cc5ccncc5o4)cc3)c2)no1`, with 7.9 nM.
As to `O=C(NCc1ccc(S(=O)(=O)c2ccc(F)c(C(F)(F)F)c2)cc1)c1cnc2nccn2c1`, the half-inhibitory concentration (IC50) is 8 nM.
Regarding `O=C(NCc1ccc(S(=O)(=O)c2cccc(N3CCOCC3)c2)cc1)c1cc2ccncc2[nH]1`, the IC50 is 20.7 nM and 8.4 nM.
On the same count and under the same terms, with `O=C(NCc1ccc(S(=O)(=O)c2ccc(F)c(OCC(F)(F)F)c2)cc1)c1cnc2[nH]ncc2c1` [N-[(4-{[4-fluoro-3-(2,2,2-trifluoroethoxy)benzene]sulfonyl}phenyl)methyl]-1H-pyrazolo[3,4-b]pyridine-5-carboxamide] the figure was 10 nM; with `O=C(NCc1ccc(S(=O)(=O)c2cc(C(F)(F)F)ccn2)cc1)c1ccc2nccn2c1` [N-({4-[4-(trifluoromethyl)pyridine-2-sulfonyl]phenyl}methyl)imidazo[1,2-a]pyridine-6-carboxamide], 19.7 nM; with `Cn1cc2ccc(S(=O)(=O)c3ccc(CNC(=O)c4cc5cnccc5[nH]4)cc3)cc2n1` [N-{[4-(2-methyl-2H-indazole-6-sulfonyl)phenyl]methyl}-1H-pyrrolo[3,2-c]pyridine-2-carboxamide], 2.5 nM.
On the same count and under the same terms, with `O=C(NCc1ccc(S(=O)(=O)c2cnc3ccccc3c2)cc1)c1cc2ccncc2o1` [N-{[4-(quinoline-3-sulfonyl)phenyl]methyl}furo[2,3-c]pyridine-2-carboxamide] the figure was 4.2 nM; with `CC(C)Oc1ccc(S(=O)(=O)c2ccc(CNC(=O)c3cnc4nccn4c3)cc2)cc1`, 4.3 nM.
The same measure, in the same setting: then `O=C(NC1CCCC1)c1cccc(S(=O)(=O)c2ccc(CNC(=O)c3cc4ccncc4o3)cc2)c1`, with 6.6 nM; and `CN(C)S(=O)(=O)c1cccc(S(=O)(=O)c2ccc(CNC(=O)c3cc4ccncc4o3)cc2)c1`, with 2 nM.
As to `O=C(NCc1ccc(S(=O)(=O)c2cccc3c2OCC3)cc1)c1cnc2[nH]ncc2c1` [N-{[4-(2,3-dihydro-1-benzofuran-7-sulfonyl)phenyl]methyl}-1H-pyrazolo[3,4-b]pyridine-5-carboxamide], the IC50 was 24.8 nM.
For the compound `O=C(NCc1ccc(S(=O)(=O)c2cncc3ccccc23)cc1)c1cnc2nccn2c1` [N-{[4-(isoquinoline-4-sulfonyl)phenyl]methyl}imidazo[1,2-a]pyrimidine-6-carboxamide], the IC50 stood at 1.6 nM.
Consider `O=C(NCc1ccc(S(=O)(=O)c2cncc(Cl)c2)cc1)c1ccc2nccn2c1` [N-{[4-(5-chloropyridine-3-sulfonyl)phenyl]methyl}imidazo[1,2-a]pyridine-6-carboxamide], for which the IC50 worked out at 24.4 nM.
Turning to `O=C(NCc1ccc(S(=O)(=O)c2cccc3c2sc2ccccc23)cc1)c1cc2cnccc2[nH]1`, the IC50 is 3.5 nM.
Still for that read-out and setting: then `CCS(=O)(=O)c1cccc(S(=O)(=O)c2ccc(CNC(=O)c3cc4ccncc4o3)cc2)c1`, with 2.7 nM; and `COc1cccc(S(=O)(=O)c2ccc(CNC(=O)c3cc4ccncc4o3)cc2)n1` [N-{[4-(6-methoxypyridine-2-sulfonyl)phenyl]methyl}furo[2,3-c]pyridine-2-carboxamide], with 2.5 nM; and `CCCS(=O)(=O)Nc1cccc(S(=O)(=O)c2ccc(CNC(=O)c3cc4ccncc4s3)cc2)c1`, with 1.5 nM.

Still in this assay, the particulars now being: NAMPT enzymatic reaction; read-out: Biochem IC50.
Regarding `CCCOc1ccc(Cl)cc1S(=O)(=O)c1ccc(CNC(=O)c2ccc3nccn3c2)cc1`, the IC50 came out at 8 nM.
In the case of `CC(C)(C)c1cccc(S(=O)(=O)c2ccc(CNC(=O)c3ccc4nccn4c3)cc2)c1`, the IC50 stood at 9.7 nM.
Take `COc1ccc(Cl)cc1S(=O)(=O)c1ccc(CNC(=O)c2ccc3nccn3c2)cc1`: the IC50 amounted to 19.1 nM.
Take `O=C(NCc1ccc(S(=O)(=O)c2ccccc2OC(F)(F)F)cc1)c1ccc2nccn2c1` [N-(4-(2-(trifluoromethoxy)phenylsulfonyl)benzyl)imidazo[1,2-a]pyridine-6-carboxamide]: the IC50 was found to be 8 nM.
For the compound `Cc1ccc(S(=O)(=O)c2ccc(CNC(=O)c3cnc4[nH]ncc4c3)cc2)cc1Cl`, the IC50 stood at 6.1 nM.
`Cc1cc(F)cc(S(=O)(=O)c2ccc(CNC(=O)c3cc4ccncc4o3)cc2)c1`: the IC50 was found to be 3.4 nM.
With `CCCOc1ccc(S(=O)(=O)c2ccc(CNC(=O)c3cc4cnccc4[nH]3)cc2)cc1Cl`, the IC50 was 74 nM.
Still for that read-out and setting: then “N-({4-[(2,4-dichloro-3-methoxybenzene)sulfonyl]phenyl}methyl)-1H-pyrazolo[3,4-b]pyridine-5-carboxamide”, with 20 nM.

Another assay relates to A2780 cells. Kind of assay: In-vitro cell proliferation assay (SRB), A2780 cells. In kind it is cell-based. The settings on record: A2780 cells, 72 hours, SRB; read-out: A2780 IC50. As for the experimental part: In-Vitro Cell Proliferation Assay
After overnight incubation at 37° C. and 5% CO2, the compound titrations were performed in a separate dilution plate by serially diluting the compounds in DMSO to make a 1000× stock. The compounds were then further diluted to 10× final concentration in culture media, whereupon 20 μL of each dilution was added to the plated cells with controls (e.g. DMSO and blank) to make a final volume of 200 μL. The final DMSO concentration in each well was 0.1%. The plates were then incubated for 72 hours at 37° C. in a 5% CO2 incubator. The number of viable cells was then assessed using sulforhodamine B (SRB) assay. Cells were fixed at 4° C. for 1 hour with the addition of 50 μL 30% trichloroacetic acid (TCA) to make a final concentration of 6% TCA. The plates were washed four times with H2O and allowed to dry for at least 1 hour, whereupon 100 μL of a 4% SRB in 1% acetic acid solution was added to each well and incubated at room temperature for at least 30 minutes. The plates were then washed three times with 1% acetic acid, dried, and treated with 100 μL of 10 mM Tris-Base solution. The plates were then read in a microplate reader at an absorbance of 570 nm. Background was generated on a separate plate with media only.
Method for Determining % Inhibition
First, the signals from the background plate are averaged, then the background was subtracted from the test plates.
wherein X denotes the compound concentration 1, Y denotes the compound concentration 2, XX denotes the % inhibition at compound concentration 1 (X), and YY denotes the % inhibition at compound concentration 2 (Y).
`Cc1c(F)cccc1S(=O)(=O)c1ccc(CNC(=O)c2cc3ccncc3s2)cc1`: the IC50 was 21.4 nM.

Staying with this assay, now noted: Homo sapiens, A2780, 72 h, A2780 cells, 72 hours, SRB assay; read-out: A2780 IC50.
On to `O=C(NCc1ccc(S(=O)(=O)N2CCCCC2)cc1)c1cc2cnccc2[nH]1` [N-{[4-(piperidine-1-sulfonyl)phenyl]methyl}-1H-pyrrolo[3,2-c]pyridine-2-carboxamide], for which the half-maximal inhibitory concentration (IC50) amounted to 200 nM.

Still in this assay, the particulars now being: Homo sapiens, A2780, 72 h, A2780 cells, 72 hours, SRB; read-out: A2780 IC50.
Turning to `O=C(NCc1ccc(S(=O)(=O)c2ccc(-c3ccccc3)cc2)cc1)c1cnc2nccn2c1`, the IC50 was 7.6 nM.
Take `COc1cc(-n2cccn2)ccc1S(=O)(=O)c1ccc(CNC(=O)c2cnc3nccn3c2)cc1`: the IC50 is 8.7 nM.
As to `CCOc1cccc(S(=O)(=O)c2ccc(CNC(=O)c3cc4ccncc4s3)cc2)c1` [N-({4-[(3-ethoxybenzene)sulfonyl]phenyl}methyl)thieno[2,3-c]pyridine-2-carboxamide], the IC50 stood at 2.9 nM.
On to `O=C(NCc1ccc(S(=O)(=O)c2ccc(C(=O)N3CCCC3)cc2)cc1)c1cc2ccncc2s1`, for which the 50% inhibitory concentration (IC50) was 1.7 nM.
For the compound `Cn1cc2ccc(S(=O)(=O)c3ccc(CNC(=O)c4cnc5[nH]ncc5c4)cc3)cc2n1` [N-{[4-(2-methyl-2H-indazole-6-sulfonyl)phenyl]methyl}-1H-pyrazolo[3,4-b]pyridine-5-carboxamide], the IC50 stood at 7 nM.
Same read-out and setting: then `O=C(NCc1ccc(S(=O)(=O)c2ccc(C(=O)N3CCCC3)cc2)cc1)c1cc2ccncc2o1` [N-{[4-({4-[(pyrrolidin-1-yl)carbonyl]benzene}sulfonyl)phenyl]methyl}furo[2,3-c]pyridine-2-carboxamide], with 1.4 nM; and `COCc1cccc(S(=O)(=O)c2ccc(CNC(=O)c3cnc4nccn4c3)cc2)c1`, with 13.8 nM.
With `Cc1cccc(S(=O)(=O)c2ccc(CNC(=O)c3cnc4nccn4c3)cc2)c1F` [N-({4-[(2-fluoro-3-methylbenzene)sulfonyl]phenyl}methyl)imidazo[1,2-a]pyrimidine-6-carboxamide], the IC50 was 21.5 nM.
Consider `O=C(NCc1ccc(S(=O)(=O)c2cc(F)cc(F)c2)cc1)c1ccc2nccn2c1` [N-({4-[(3,5-difluorobenzene)sulfonyl]phenyl}methyl)imidazo[1,2-a]pyridine-6-carboxamide], for which the IC50 worked out at 1.5 nM.
As for `O=C(NCc1ccc(S(=O)(=O)c2cccc(-c3ncccn3)c2)cc1)c1cnc2nccn2c1`, the IC50 worked out at 13 nM.
For `O=C(NCc1ccc(S(=O)(=O)c2ccc(C(=O)N3CCCC3)cc2)cc1)c1cnc2[nH]ncc2c1`, the IC50 was 9.3 nM.
In the case of `O=C(NCc1ccc(S(=O)(=O)c2cccc3cc[nH]c23)cc1)c1cnc2[nH]ncc2c1` [N-{[4-(1H-indole-7-sulfonyl)phenyl]methyl}-1H-pyrazolo[3,4-b]pyridine-5-carboxamide], the IC50 was determined as 43.2 nM.
As for `COc1cc(OC)cc(S(=O)(=O)c2ccc(CNC(=O)c3ccc4nccn4c3)cc2)c1`, the IC50 is 1.5 nM.

Still in this assay, the particulars now being: Homo sapiens; A2780 cells, 72 hours, SRB; read-out: A2780 IC50.
Turning to `O=C(NCc1ccc(S(=O)(=O)c2cccc(C(F)(F)F)c2)cc1)c1cnc2[nH]ncc2c1`, the IC50 came out at 10.4 nM.
